Like-named read-outs stand apart in the source and are kept apart here.
Assays:
PIG3 [1] = assay: Adriamycin upregulation of PIG3 over time and dose (PIG3 ELISA, FIG. 4A); type: cell-based, human
Excerpt: The invention features a PIG3 ELISA that is a “sandwich” enzyme immunoassay employing two mouse monoclonal antibodies and methods for using the assay. A monoclonal antibody, specific for the human PIG3 protein, is immobilized onto the surface of microtiter wells provided. A kit for the immunoassay, comprising two monoclonal antibodies X1155P and X1156M, is available from Exalpha Biologicals, Inc. in Boston, Mass. As the Frontier Assay Kit. The sample to be assayed and the biotinylated detector monoclonal antibody are pipetted into the wells and allowed to incubate for two hours, during which time any PIG3 present binds to the capture and detecting antibodies. […]
The horseradish peroxidase catalyzes the conversion of the chromogenic substrate tetra-methylbenzidine (TMB) from a colorless solution to a blue solution (or yellow after the addition of stop reagent), the intensity of which is proportional to the amount of PIG3 protein in the sample. The colored reaction product is quantified using a spectrophotometer.
Quantitation is achieved by the construction of a standard curve using known concentrations of PIG3 (provided lyophilized). By comparing the absorbance obtained from a sample containing an unknown amount of PIG3 with that obtained from the standards, the concentration of PIG3 in the sample is determined. […]

PIG3 [2] = details: cited from earlier work

## COc1cccc2c1C(=O)c1c(O)c3c(c(O)c1C2=O)C[C@@](O)(C(=O)CO)C[C@@H]3O[C@H]1C[C@H](N)[C@H](O)[C@H](C)O1 [Adriamycin, adriamycin]
PIG3 [1]
  PIG3 level: upregulation of PIG3
PIG3 [2]; cell lines with wild-type p53 genes
  PIG3 induction: strongly induced
PIG3 [2]; cell with mutant p53
  PIG3 induction: not in the cell with mutant p53

Reference: patent US20050074901A1, “Methods and assays for detecting and quantifying the human p53 inducible gene protein” (priority 2002, published 2005)
